Values after ≈ are worked out from the molar mass of the structure shown. Where two headings read alike, the source gives them in different places.
Experiments:
physchem [1] = assay: physchem
Protocol: Measurements were taken via LC/MS.
Stir bars were removed and samples centrifuged at 15,000 g for 15 minutes to separate the phases, and pipette and syringe were used to remove the upper (octanol) and lower (buffer) phases to empty tubes, respectively. Aliquots of 5 ni, were taken from upper phases and diluted with 495 ni, of methanol. Aliquots of 50 ni, were taken from lower phases and diluted with 450 ni, of methanol. Reference solutions of progesterone or metopolol were also prepared and tested as standards.

[2] = Solubility determination in PBS by LC/MS/MS; details: for solubility at 2 h: kinetic from dmso stock
[3] = parameters: concentration or dose not given beside the values; details: cited from earlier work
[4] = parameters: concentration or dose not given beside the values; details: cited from earlier work; remark: listed apart in the source
physchem [5] = details: 25 °C, kinetic from dmso stock
[6] = rats, 300 μmol/kg intraperitoneally immediately after uranyl acetate; cited from earlier work
[7] = PBS pH 4.0, 25 °C, pH 4, aqueous buffer
[8] = PBS pH 7.4, 25 °C, pH 7.4, aqueous buffer

SMILES | logD at 1 h (physchem [1]; pH 7.4) | solubility at 2 h [2, 7] | solubility at 2 h [2, 8] | Rodent ICE [3] | further results
COCCOCCOc1ccc(C2=NC(C)(C(=O)O)CO2)c(O)c1 (centres unmarked) [Example 1, 2-(2-hydroxy-4-(2-(2-methoxyethoxy)ethoxy)phenyl)-4-methyl-4,5-dihydrooxazole-4-carboxylic acid] | -1.39 | 309 µM (≈ 105 µg/mL) | 312 µM (≈ 106 µg/mL) |  | 
COCCOCCOCCOc1ccc(C2=NC(C)(C(=O)O)CO2)c(O)c1 (centres unmarked) [Example 2, 2-(2-hydroxy-4-(2-(2-(2-methoxyethoxy)ethoxy)ethoxy)phenyl)-4-methyl-4,5-dihydrooxazole-4-carboxylic acid] | -1.77 | 297 µM (≈ 114 µg/mL) | 291 µM (≈ 112 µg/mL) |  | 
COCCOCCOc1ccc(C2=NC(C)(C(=O)O)CN2)c(O)c1 (centres unmarked) [Example 3, 2-(2-hydroxy-4-(2-(2-methoxyethoxy)ethoxy)phenyl)-4-methyl-4,5-dihydro-1H-imidazole-4-carboxylic acid] | -1.87 | 302 µM (≈ 102 µg/mL) | 299 µM (≈ 101 µg/mL) |  | 
COCCOCCOCCOc1ccc(C2=NC(C)(C(=O)O)CN2)c(O)c1 (centres unmarked) [Example 4, 2-(2-hydroxy-4-(2-(2-(2-methoxyethoxy)ethoxy)ethoxy)phenyl)-4-methyl-4,5-dihydro-1H-imidazole-4-carboxylic acid] | -2.13 | 313 µM (≈ 120 µg/mL) | 316 µM (≈ 121 µg/mL) |  | 
COCCOCCOc1cccc(C2=NC(C)(C(=O)O)CN2)c1O (centres unmarked) [Example 5, 2-(2-hydroxy-3-(2-(2-methoxyethoxy)ethoxy)phenyl)-4-methyl-4,5-dihydro-1H-imidazole-4-carboxylic acid] | -2.09 | 306 µM (≈ 104 µg/mL) | 311 µM (≈ 105 µg/mL) |  | 
COCCOCCOCCOc1cccc(C2=NC(C)(C(=O)O)CN2)c1O (centres unmarked) [Example 6, 2-(2-hydroxy-3-(2-(2-(2-methoxyethoxy)ethoxy)ethoxy)phenyl)-4-methyl-4,5-dihydro-1H-imidazole-4-carboxylic acid] | -1.98 | 311 µM (≈ 119 µg/mL) | 311 µM (≈ 119 µg/mL) |  | 
COCCOCCOc1ccc(-n2ccc(C(=O)O)n2)c(O)c1 [Example 7, 1-(2-hydroxy-4-(2-(2-methoxyethoxy)ethoxy)phenyl)-1H-pyrazole-3-carboxylic acid] | -2.24 | 294 µM (≈ 94.7 µg/mL) | 297 µM (≈ 95.7 µg/mL) |  | 
COCCOCCOCCOc1ccc(-n2ccc(C(=O)O)n2)c(O)c1 [Example 8, 1-(2-hydroxy-4-(2-(2-(2-methoxyethoxy)ethoxy)ethoxy)phenyl)-1H-pyrazole-3-carboxylic acid] | -2.14 | 300 µM (≈ 110 µg/mL) | 298 µM (≈ 109 µg/mL) |  | 
COCCOCCOc1ccc(C2=N[C@@](C)(C(=O)O)CS2)c(O)c1 [Example A, (S)-2-(2-hydroxy-4-(2-(2-methoxyethoxy)ethoxy)phenyl)-4-methyl-4,5-dihydrothiazole-4-carboxylic acid] | -1.14 |  |  | 26.7 ± 4.7% | Primate ICE ([4]; capsule): 26.3 ± 9.9%; Primate ICE ([4]; sodium salt): 28.7 ± 12.4%; solubility at 2 h (physchem [5]; pH 4, aqueous buffer): 309 µM (≈ 110 µg/mL); solubility at 2 h (physchem [5]; pH 7.4, aqueous buffer): 305 µM (≈ 108 µg/mL)
COCCOCCOCCOc1ccc(C2=N[C@@](C)(C(=O)O)CS2)c(O)c1 [Example B, (S)-2-(2-hydroxy-4-(2-(2-(2-methoxyethoxy)ethoxy)ethoxy)phenyl)-4-methyl-4,5-dihydrothiazole-4-carboxylic acid] | -1.45 | 307 µM (≈ 123 µg/mL) | 313 µM (≈ 125 µg/mL) | 5.5 ± 1.9% | Primate ICE [4]: 25.4 ± 7.4%; % Dose Cleared [6]: 22%; Uranium Excretion [6]: 626 ± 123 µg/kg; Uranium Excretion vs. Control [6]: 2.2
COCCOCCOCCOCCOc1ccc(C2=N[C@@](C)(C(=O)O)CS2)c(O)c1 [Example C, (S)-2-(4-(2,5,8,11-tetraoxamidecan-13-yloxy)-2-hydroxyphenyl)-4-methyl-4,5-dihydrothiazole-4-carboxylic acid] |  |  |  | 12.0 ± 1.5% | Primate ICE [4]: 9.8 ± 1.9%
COCCOCCOc1cccc(C2=N[C@@](C)(C(=O)O)CS2)c1O [Example D, (S)-2-(2-hydroxy-3-(2-(2-methoxyethoxy)ethoxy)phenyl)-4-methyl-4,5-dihydrothiazole-4-carboxylic acid] |  |  |  | 15.1 ± 2.0% | Primate ICE [4]: 22.5 ± 6.4%
COCCOCCOCCOc1cccc(C2=N[C@@](C)(C(=O)O)CS2)c1O [Example E, (S)-2-(2-hydroxy-3-(2-(2-(2-methoxyethoxy)ethoxy)ethoxy)phenyl)-4-methyl-4,5-dihydrothiazole-4-carboxylic acid] |  |  |  | 10.6 ± 4.4%b | Primate ICE [4]: 23.0 ± 4.1%
COCCOCCOCCOCCOc1cccc(C2=N[C@@](C)(C(=O)O)CS2)c1O [Example F, (S)-2-(3-(2,5,8,11-tetraoxamidecan-13-yloxy)-2-hydroxyphenyl)-4-methyl-4,5-dihydrothiazole-4-carboxylic acid] |  |  |  | 12.4 ± 1.7% | Primate ICE [4]: 9.6 ± 4.9%
O=C(O)Cc1ccccc1Nc1c(Cl)cccc1Cl [diclofenac] |  | 7.47 µM (≈ 2.21 µg/mL) |  |  | Solubility at pH 7.4 ([2]; PBS pH 7.4, 25° C., 2 hours, assay upper limit 300 μM): 273.38 μM
COCCc1ccc(OCC(O)CNC(C)C)cc1 (centres unmarked) [metopolol] |  |  |  |  | LogD (physchem [1]; pH 7.4): −0.27
CC(=O)[C@H]1CC[C@H]2[C@@H]3CCC4=CC(=O)CC[C@]4(C)[C@H]3CC[C@]12C [progesterone] |  |  |  |  | logD at 1 h (physchem [1]): 3.71

Reference: patent US20130053387A1, “DESAZADESFERROTHIOCIN AND DESAZADESFERROTHIOCIN POLYETHER ANALOGUES AS METAL CHELATION AGENTS” (FerroKin BioScience, Inc., priority 2010, published 2013)
